# Assay results: patent US10695331B2, “Veterinary composition comprising imidacloprid, moxidectin and praziquantel for cutaneous topical application (spot on), for the treatment and prevention of ecto and endoparasitoses affecting dogs” (LABYES USA, LLC, priority 2016, dated 2020)
# Read-outs that look alike come from different tables or passages of the source.
# Key:
# [1] = cited from earlier work
# in vivo = settings: dog
# Procedure: In a period not longer than 2 hours, all of the samples were sent to the Laboratory, where they were centrifuged, and their plasma separated and frozen to −20° C. until the samples were quantified.
# [2] = subcutaneous administration, 5 mg/kg, Xie et al. 2011; cited from earlier work
# [3] = pigs; cited from earlier work
# [4] = oral, 0.5 and 2.0 mg/kg/12 hours, 36 days; increase of four times the original dose; cited from earlier work
# [5] = in vivo; cited from earlier work
# [6] = dogs; cited from earlier work
# [7] = cows; cited from earlier work
# [8] = sheep; cited from earlier work
# [9] = percutaneous, cats (Sarasola, 2002); cited from earlier work
# [10] = percutaneous, dogs (Sarasola, 2002); cited from earlier work
# [11] = Plasma concentrations of Praziquantel
structure (smiles),measurement,setting,value
O=C(C1CCCCC1)N1CC(=O)N2CCc3ccccc3C2C1 (stereo not shown) [Praziquantel],part of an oral dose excreted with no changes,[1]; oral dose,less than 1%
same,concentration in tissues and plasma,[1]; up to,14-20%
same,Plasma concentrations of Praziquantel,in vivo; 0 h,0.0 ng/mL
same,time up to which plasma concentrations are detectable,in vivo; 14.5 mg/kg,up to 48 hours
same,concentration at 0 h,in vivo; [11],0 ng/mL
same,concentration at 6 h,in vivo; [11],63.7 ng/mL
same,"AUC/inf, Max","in vivo; topical or ocular, 14.5 mg/kg",1321
same,"AUC/inf, Min","in vivo; topical or ocular, 14.5 mg/kg",626.6
same,"CMAX, Min","in vivo; topical or ocular, 14.5 mg/kg",38.6 ng/mL
same,"TMAX, Min","in vivo; topical or ocular, 14.5 mg/kg",4 h
same,Tmax,"in vivo; topical or ocular, 14.5 mg/kg",4 h
same,AUC,"in vivo; topical or ocular, 14.5 mg/kg, AUC/inf, Median",997 ng·h/mL
same,Cmax,"in vivo; topical or ocular, 14.5 mg/kg, Max",77.6 ng/mL
same,Cmax,"in vivo; topical or ocular, 14.5 mg/kg, Median",53.9 ng/mL
same,Tmax,"in vivo; topical or ocular, 14.5 mg/kg, TMAX",6 h
same,Tmax,"in vivo; topical or ocular, 14.5 mg/kg, TMAX, Median",5 h
same,Tmax,"in vivo; topical or ocular, 14.5 mg/kg, Tmax range",4 to 6 h
same,Cmax,[2],47.82 ng/mL
same,Tmax,[2],1.45 h
same,plasma values after 48 hours,[2],below 10 ng/ml
CO/N=C1\C[C@]2(C[C@@H]3C[C@@H](C/C=C(\C)C[C@@H](C)/C=C/C=C4\CO[C@@H]5[C@H](O)C(C)=C[C@@H](C(=O)O3)[C@]45O)O2)O[C@H](/C(C)=C/C(C)C)[C@H]1C [Moxidectin],half-life of elimination,[3],12 h
same,average increase of the concentrations in plasma,[4],more than 8 times
same,time of plasma spikes,[5],3 to 5 h
same,half-life of elimination,[6],43.2 h
same,half-life of elimination,[7],67.2 h
same,half-life of elimination,[8],64.8 h
CO[C@H]1C[C@H](O[C@@H]2/C(C)=C/C[C@@H]3C[C@@H](C[C@]4(CC[C@H](C)[C@@H](C5CCCCC5)O4)O3)OC(=O)[C@@H]3C=C(C)/C(=N/O)[C@H]4OC/C(=C\C=C\[C@@H]2C)[C@]43O)O[C@@H](C)[C@@H]1O [Selamectin],bioavailability,[9],74%
same,bioavailability,[10],4%
